Experimental data: US20240360177A1, “PEPTIDES WITH ANTIMICROBIAL ACTIVITIES” (priority 2021, published 2024)
Values after ≈ are worked out from the molar mass of the structure shown. Non-standard residues stand in square brackets, D forms with d. Residues, ends and D or L forms follow the SMILES beside them.

Key:
in vitro = conditions: human
C. gattii = conditions: 72 h
C. dubliniensis = conditions: 24 h
C. glabrata = conditions: 24 h
C. krusei = conditions: 24 h
[1] = test system: Staphylococcus aureus ATCC 29213; type: cell-based
[2] = test system: Salmonella senftenberg CDC 127; type: cell-based
[3] = test system: Shigella sonnei MMX 10772; test: Antibacterial broth microdilution MIC, Shigella sonnei; type: cell-based; conditions: CAMHB
C. parapsilosis = conditions: 24 h
[4] = test system: Pseudomonas aeruginosa ATCC 27853; type: cell-based
[5] = test system: Trichophyton rubrum ATCC MYA-4438
[6] = test system: Mycobacterium smegmatis ATCC 700084; type: cell-based; conditions: ATCC 700084, 48 h
C. albicans = conditions: 24 h
[7] = test system: Epidermophyton floccosum ATCC 52066
[8] = test system: Escherichia coli ATCC 25922; type: cell-based
C. tropicalis = conditions: 24 h
Fusarium spp. = conditions: 48 h
C. auris = conditions: 24 h
[9] = test system: Mycobacterium fortuitum ATCC 110; test: Antibacterial broth microdilution MIC, Mycobacterium fortuitum; type: cell-based; conditions: 48 hrs
[10] = test system: Klebsiella pneumoniae ATCC 13883; type: cell-based
C. neoformans = conditions: 72 h
[11] = test system: Microsporum gypseum ATCC 14683

## N=C(N)NCCC[C@@H](N)C(=O)N[C@@H](CCCNC(=N)N)C(=O)N[C@H](CCCNC(=N)N)C(=O)NCC(=O)N[C@H](CCCNC(=N)N)C(=O)N[C@@H](CCCNC(=N)N)C(=O)N[C@H](CCCNC(=N)N)C(=O)NCC(=O)N[C@H](CCCNC(=N)N)C(=O)N[C@@H](CCCNC(=N)N)C(=O)N[C@H](CCCNC(=N)N)C(=O)N[C@@H](CCCNC(=N)N)C(=O)NCC(=O)N[C@H](CCCNC(=N)N)C(=O)N[C@@H](CCCNC(=N)N)C(=O)N[C@H](CCCNC(=N)N)C(=O)N[C@@H](CCCNC(=N)N)C(=O)N[C@@H](CS)C(=O)O [SEQ ID NO: 2, rRr-G-rRr-G-rRrR-G-rRrR-Cys] (H-[dR]R[dR]G[dR]R[dR]G[dR]R[dR]RG[dR]R[dR]RC-OH)
In vitro; EC50 cytotoxicity in HepG2, intracellular ATP assay
  EC50: 40 µg/mL (≈ 16.1 µM)
In vitro; EC50 cytotoxicity in HepG2 cells (50% cell viability)
  EC50: 39.6 µg/mL (≈ 16 µM)
C. gattii
  MIC C. gattii: 0.5 µg/mL (≈ 0.202 µM)
C. dubliniensis
  MIC C. dubliniensis: 0.5 µg/mL (≈ 0.202 µM)
C. glabrata
  MIC C. glabrata: 0.5 µg/mL (≈ 0.202 µM)
C. krusei
  MIC C. krusei: 0.5 µg/mL (≈ 0.202 µM)
[1]
  MIC Staphylococcus aureus: 8 µg/mL (≈ 3.23 µM)
[2]
  MIC Salmonella senftenberg: 32 µg/mL (≈ 12.9 µM)
[3]
  MIC Shigella sonnei: 16 µg/mL (≈ 6.45 µM)
C. parapsilosis
  MIC C. parapsilosis: 0.25 µg/mL (≈ 0.101 µM)
Candida spp.
  MIC50 against Candida spp.: 0.5 µg/mL (≈ 0.202 µM)
  MIC90 against Candida spp.: 2 µg/mL (≈ 0.807 µM)
[4]
  MIC Pseudomonas aeruginosa: 32 µg/mL (≈ 12.9 µM)
[5]
  MIC Trichophyton rubrum: 2 µg/mL (≈ 0.807 µM)
[6]
  MIC Mycobacterium smegmatis: 1 µg/mL (≈ 0.403 µM)
C. albicans
  MIC C. albicans: 0.5 µg/mL (≈ 0.202 µM)
[7]
  MIC Epidermophyton floccosum: 4 µg/mL (≈ 1.61 µM)
[8]
  MIC Escherichia coli: 8 µg/mL (≈ 3.23 µM)
C. tropicalis
  MIC C. tropicalis: 0.25 µg/mL (≈ 0.101 µM)
Fusarium spp.
  MIC Range Fusarium spp.: 0.12 to 0.25 µg/mL
C. auris
  MIC C. auris: 2 µg/mL (≈ 0.807 µM)
[9]
  MIC Mycobacterium fortuitum: 4 µg/mL (≈ 1.61 µM)
[10]
  MIC Klebsiella pneumoniae: 64 µg/mL (≈ 25.8 µM)
C. neoformans
  MIC C. neoformans: 0.5 µg/mL (≈ 0.202 µM)
[11]
  MIC Microsporum gypseum: >64 µg/mL
